What all share (format): in vivo
The subject of one assay is Digitaria sanguinalis. The experiment in a line: Post-emergence test experiment, Digitaria sanguinalis. The following applies: 1000 g a.i./ha, 3 weeks in greenhouse, fresh weight inhibition. The method in brief:
(§1)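 Growth inhibition is given as reduction in fresh weight, assessed 3 weeks post-treatment in the greenhouse. Spray solutions (acetone, tween-80, water, with 1.5 L/ha methyl oleate concentrate synergist) were applied to weeds and crops at 2-3 leaves, 2 weeks from sowing.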

The subject of another assay is Echinochloa crusgalli. Nature of the assay: Post-emergence test experiment, Echinochloa crusgalli. The following applies: 1000 g a.i./ha, 3 weeks in greenhouse, fresh weight inhibition. The method in brief:
as §1

The subject of assay [1] is Monocotyledonous and dicotyledonous weed seeds and main crop seeds. Nature of the assay: Post-emergence test experiment, other weeds and crops (Table 4, 1000 g a.i./ha). Particulars: 3 weeks in greenhouse, fresh weight inhibition. In outline: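 Growth inhibition is scored on fresh weight. Spray solutions were made in acetone with tween-80, diluted in water, plus 1.5 L/ha methyl oleate emulsible concentrate. Plants from greenhouse-grown weed and crop seeds were treated post-emergence at 2-3 leaves, 2 weeks after sowing.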

Regarding `CC(C)CCSC(=O)[C@@H](C)Oc1nc(F)c(Cl)c(N)c1Cl` [Compound 2-90], the “Activity level (growth inhibition rate), Digitaria sanguinalis” value in the assay on Digitaria sanguinalis was 5 (Level 5: the growth inhibition rate is greater than 85%). Moreover, in the assay with Echinochloa crusgalli, the “Activity level (growth inhibition rate), Echinochloa crusgalli” value is 5 (Level 5: the growth inhibition rate is greater than 85%). Further, in assay [1], the “Activity level (growth inhibition rate), Abutilon theophrasti Medic.” value is on record as 5 (Level 5: the growth inhibition rate is greater than 85%); the “Activity level (growth inhibition rate), Galium aparine” value was 5 (Level 5: the growth inhibition rate is greater than 85%); the “Activity level (growth inhibition rate), Monochoria Vaginalis” value is recorded as 5 (Level 5: the growth inhibition rate is greater than 85%).

Turning to `Cc1ccccc1COC(=O)C(C)Oc1nc(F)c(Cl)c(N)c1Cl` (stereo not drawn) [Compound 2-302], the “Activity level (growth inhibition rate), Digitaria sanguinalis” value in the assay on Digitaria sanguinalis is recorded as 5 (Level 5: the growth inhibition rate is greater than 85%). Also, in the assay with Echinochloa crusgalli, the “Activity level (growth inhibition rate), Echinochloa crusgalli” value is 5 (Level 5: the growth inhibition rate is greater than 85%). Besides, in assay [1], the “Activity level (growth inhibition rate), Abutilon theophrasti Medic.” value was 5 (Level 5: the growth inhibition rate is greater than 85%); the “Activity level (growth inhibition rate), Galium aparine” value is recorded as 5 (Level 5: the growth inhibition rate is greater than 85%); the “Activity level (growth inhibition rate), Monochoria Vaginalis” value is recorded as 5 (Level 5: the growth inhibition rate is greater than 85%).

As to `C[C@@H](Oc1nc(F)c(Cl)c(N)c1Cl)C(=O)SCC(C)(C)C` [Compound 2-92], the “Activity level (growth inhibition rate), Digitaria sanguinalis” value with Digitaria sanguinalis is on record as 5 (Level 5: the growth inhibition rate is greater than 85%). Also, the “Activity level (growth inhibition rate), Echinochloa crusgalli” value in the assay on Echinochloa crusgalli is 5 (Level 5: the growth inhibition rate is greater than 85%). Further, in assay [1], the “Activity level (growth inhibition rate), Abutilon theophrasti Medic.” value is 5 (Level 5: the growth inhibition rate is greater than 85%); the “Activity level (growth inhibition rate), Galium aparine” value was 5 (Level 5: the growth inhibition rate is greater than 85%); the “Activity level (growth inhibition rate), Monochoria Vaginalis” value is reported as 5 (Level 5: the growth inhibition rate is greater than 85%).

`CC(Oc1nc(F)c(Cl)c(N)c1Cl)C(=O)OCCN` (stereo not drawn) [Compound 2-284]: the “Activity level (growth inhibition rate), Digitaria sanguinalis” value with Digitaria sanguinalis was 5 (Level 5: the growth inhibition rate is greater than 85%). Also, in the assay with Echinochloa crusgalli, the “Activity level (growth inhibition rate), Echinochloa crusgalli” value was 5 (Level 5: the growth inhibition rate is greater than 85%). In addition, in assay [1], the “Activity level (growth inhibition rate), Abutilon theophrasti Medic.” value is recorded as 5 (Level 5: the growth inhibition rate is greater than 85%); the “Activity level (growth inhibition rate), Galium aparine” value was 5 (Level 5: the growth inhibition rate is greater than 85%); the “Activity level (growth inhibition rate), Monochoria Vaginalis” value is on record as 5 (Level 5: the growth inhibition rate is greater than 85%).

For the compound `C[C@@H](Oc1nc(F)c(Cl)c(N)c1Cl)C(=O)OCc1ccccn1` [Compound 2-342], the “Activity level (growth inhibition rate), Digitaria sanguinalis” value in the assay with Digitaria sanguinalis is reported as 5 (Level 5: the growth inhibition rate is greater than 85%). In the assay with Echinochloa crusgalli, the “Activity level (growth inhibition rate), Echinochloa crusgalli” value is 5 (Level 5: the growth inhibition rate is greater than 85%). Also, in assay [1], the “Activity level (growth inhibition rate), Abutilon theophrasti Medic.” value is recorded as 5 (Level 5: the growth inhibition rate is greater than 85%); the “Activity level (growth inhibition rate), Galium aparine” value is 5 (Level 5: the growth inhibition rate is greater than 85%); the “Activity level (growth inhibition rate), Monochoria Vaginalis” value is recorded as 5 (Level 5: the growth inhibition rate is greater than 85%).

On to `CC(Oc1nc(F)c(Cl)c(N)c1Cl)C(=O)OCc1cccc(C(F)(F)F)c1` (stereo not drawn) [Compound 2-329], for which the “Activity level (growth inhibition rate), Digitaria sanguinalis” value with Digitaria sanguinalis is 5 (Level 5: the growth inhibition rate is greater than 85%). Besides, the “Activity level (growth inhibition rate), Echinochloa crusgalli” value in the assay on Echinochloa crusgalli is recorded as 5 (Level 5: the growth inhibition rate is greater than 85%). Further, in assay [1], the “Activity level (growth inhibition rate), Abutilon theophrasti Medic.” value is recorded as 5 (Level 5: the growth inhibition rate is greater than 85%); the “Activity level (growth inhibition rate), Galium aparine” value was 5 (Level 5: the growth inhibition rate is greater than 85%); the “Activity level (growth inhibition rate), Monochoria Vaginalis” value is listed as 5 (Level 5: the growth inhibition rate is greater than 85%).

As to `CC(Oc1nc(F)c(Cl)c(N)c1Cl)C(=O)OC1CCCO1` (stereo not drawn) [Compound 2-297], the “Activity level (growth inhibition rate), Digitaria sanguinalis” value with Digitaria sanguinalis is listed as 5 (Level 5: the growth inhibition rate is greater than 85%). Besides, the “Activity level (growth inhibition rate), Echinochloa crusgalli” value in the assay on Echinochloa crusgalli is 5 (Level 5: the growth inhibition rate is greater than 85%). Further, in assay [1], the “Activity level (growth inhibition rate), Abutilon theophrasti Medic.” value was 5 (Level 5: the growth inhibition rate is greater than 85%); the “Activity level (growth inhibition rate), Galium aparine” value was 5 (Level 5: the growth inhibition rate is greater than 85%); the “Activity level (growth inhibition rate), Monochoria Vaginalis” value is listed as 5 (Level 5: the growth inhibition rate is greater than 85%).

On to `CC(Oc1nc(F)c(Cl)c(N)c1Cl)C(=O)OCc1ccc(Cl)cc1` (stereo not drawn) [Compound 2-318], for which the “Activity level (growth inhibition rate), Digitaria sanguinalis” value with Digitaria sanguinalis was 5 (Level 5: the growth inhibition rate is greater than 85%). In addition, in the assay with Echinochloa crusgalli, the “Activity level (growth inhibition rate), Echinochloa crusgalli” value is listed as 5 (Level 5: the growth inhibition rate is greater than 85%). Moreover, in assay [1], the “Activity level (growth inhibition rate), Abutilon theophrasti Medic.” value is given as 5 (Level 5: the growth inhibition rate is greater than 85%); the “Activity level (growth inhibition rate), Galium aparine” value is given as 5 (Level 5: the growth inhibition rate is greater than 85%); the “Activity level (growth inhibition rate), Monochoria Vaginalis” value is reported as 5 (Level 5: the growth inhibition rate is greater than 85%).

In the case of `CCC(C)CCSC(=O)[C@@H](C)Oc1nc(F)c(Cl)c(N)c1Cl` (stereo partly drawn) [Compound 2-106], the “Activity level (growth inhibition rate), Digitaria sanguinalis” value in the assay on Digitaria sanguinalis was 5 (Level 5: the growth inhibition rate is greater than 85%). Further, the “Activity level (growth inhibition rate), Echinochloa crusgalli” value with Echinochloa crusgalli was 5 (Level 5: the growth inhibition rate is greater than 85%). In assay [1], the “Activity level (growth inhibition rate), Abutilon theophrasti Medic.” value was 5 (Level 5: the growth inhibition rate is greater than 85%); the “Activity level (growth inhibition rate), Galium aparine” value is 5 (Level 5: the growth inhibition rate is greater than 85%); the “Activity level (growth inhibition rate), Monochoria Vaginalis” value was 5 (Level 5: the growth inhibition rate is greater than 85%).

As for `CC(C)CSC(=O)[C@@H](C)Oc1nc(F)c(Cl)c(N)c1Cl` [Compound 2-80], the “Activity level (growth inhibition rate), Digitaria sanguinalis” value in the assay with Digitaria sanguinalis is recorded as 5 (Level 5: the growth inhibition rate is greater than 85%). Besides, the “Activity level (growth inhibition rate), Echinochloa crusgalli” value in the assay on Echinochloa crusgalli is on record as 5 (Level 5: the growth inhibition rate is greater than 85%). Moreover, in assay [1], the “Activity level (growth inhibition rate), Abutilon theophrasti Medic.” value is listed as 5 (Level 5: the growth inhibition rate is greater than 85%); the “Activity level (growth inhibition rate), Galium aparine” value is listed as 5 (Level 5: the growth inhibition rate is greater than 85%); the “Activity level (growth inhibition rate), Monochoria Vaginalis” value is 5 (Level 5: the growth inhibition rate is greater than 85%).

`CCC(CC)OC(=O)[C@@H](C)Oc1nc(F)c(Cl)c(N)c1Cl` [Compound 2-97]: the “Activity level (growth inhibition rate), Digitaria sanguinalis” value with Digitaria sanguinalis was 5 (Level 5: the growth inhibition rate is greater than 85%). Moreover, the “Activity level (growth inhibition rate), Echinochloa crusgalli” value with Echinochloa crusgalli is recorded as 5 (Level 5: the growth inhibition rate is greater than 85%). In assay [1], the “Activity level (growth inhibition rate), Abutilon theophrasti Medic.” value was 5 (Level 5: the growth inhibition rate is greater than 85%); the “Activity level (growth inhibition rate), Galium aparine” value is recorded as 5 (Level 5: the growth inhibition rate is greater than 85%); the “Activity level (growth inhibition rate), Monochoria Vaginalis” value is 5 (Level 5: the growth inhibition rate is greater than 85%).

With `CCCCCCC(C)SC(=O)[C@@H](C)Oc1nc(F)c(Cl)c(N)c1Cl` (stereo partly drawn) [Compound 2-164], the “Activity level (growth inhibition rate), Digitaria sanguinalis” value in the assay with Digitaria sanguinalis was 5 (Level 5: the growth inhibition rate is greater than 85%). In addition, the “Activity level (growth inhibition rate), Echinochloa crusgalli” value with Echinochloa crusgalli is on record as 5 (Level 5: the growth inhibition rate is greater than 85%). In assay [1], the “Activity level (growth inhibition rate), Abutilon theophrasti Medic.” value is listed as 5 (Level 5: the growth inhibition rate is greater than 85%); the “Activity level (growth inhibition rate), Galium aparine” value was 5 (Level 5: the growth inhibition rate is greater than 85%); the “Activity level (growth inhibition rate), Monochoria Vaginalis” value is 5 (Level 5: the growth inhibition rate is greater than 85%).

For the compound `CCCCCCC(C)OC(=O)[C@@H](C)Oc1nc(F)c(Cl)c(N)c1Cl` (stereo partly drawn) [Compound 2-163], in the assay with Digitaria sanguinalis, the “Activity level (growth inhibition rate), Digitaria sanguinalis” value was 5 (Level 5: the growth inhibition rate is greater than 85%). Moreover, the “Activity level (growth inhibition rate), Echinochloa crusgalli” value in the assay with Echinochloa crusgalli is recorded as 5 (Level 5: the growth inhibition rate is greater than 85%). In assay [1], the “Activity level (growth inhibition rate), Abutilon theophrasti Medic.” value is on record as 5 (Level 5: the growth inhibition rate is greater than 85%); the “Activity level (growth inhibition rate), Galium aparine” value is 5 (Level 5: the growth inhibition rate is greater than 85%); the “Activity level (growth inhibition rate), Monochoria Vaginalis” value is listed as 5 (Level 5: the growth inhibition rate is greater than 85%).

`C=CCOC(=O)C(C)Oc1nc(F)c(Cl)c(N)c1Cl` (stereo not drawn) [Compound 2-273]: the “Activity level (growth inhibition rate), Digitaria sanguinalis” value in the assay on Digitaria sanguinalis is reported as 5 (Level 5: the growth inhibition rate is greater than 85%). The “Activity level (growth inhibition rate), Echinochloa crusgalli” value in the assay on Echinochloa crusgalli was 5 (Level 5: the growth inhibition rate is greater than 85%). Further, in assay [1], the “Activity level (growth inhibition rate), Abutilon theophrasti Medic.” value is 5 (Level 5: the growth inhibition rate is greater than 85%); the “Activity level (growth inhibition rate), Galium aparine” value is reported as 5 (Level 5: the growth inhibition rate is greater than 85%); the “Activity level (growth inhibition rate), Monochoria Vaginalis” value is given as 5 (Level 5: the growth inhibition rate is greater than 85%).

For `COC(=O)[C@@H](C)Oc1nc(F)c(Cl)c(N)c1C` [Compound 2-29], the “Activity level (growth inhibition rate), Digitaria sanguinalis” value in the assay with Digitaria sanguinalis is recorded as 5 (Level 5: the growth inhibition rate is greater than 85%). In addition, the “Activity level (growth inhibition rate), Echinochloa crusgalli” value with Echinochloa crusgalli is given as 5 (Level 5: the growth inhibition rate is greater than 85%). In addition, in assay [1], the “Activity level (growth inhibition rate), Abutilon theophrasti Medic.” value is on record as 5 (Level 5: the growth inhibition rate is greater than 85%); the “Activity level (growth inhibition rate), Galium aparine” value is given as 5 (Level 5: the growth inhibition rate is greater than 85%); the “Activity level (growth inhibition rate), Monochoria Vaginalis” value is listed as 5 (Level 5: the growth inhibition rate is greater than 85%).

Values taken from patent publication US12304890B2, “R-type pyridyloxycarboxylic acid, salt and ester derivative thereof, and preparation method therefor, and herbicidal composition and application thereof” (Qingdao Kingagroot Chemical Compound Co., Ltd., priority 2018, dated 2025).
